# From PubChem BioAssay AID2060330 (Molecular Pharmacology Branch, DTP, NCI, 2025)
# Tested on: LG0703-F948-PDC spheroids with HUVEC/MSC, viability
# Assay: Anticancer human tumor LG0703-F948-PDC patient-derived lung adenocarcinoma cell line growth inhibition [IpAb]
# Conditions: for IC50: curve of first compound; for viability, T/C: stronger effect = lower value
# Summary of the method: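 Multi-cell spheroids of 60% tumour cells, 25% HUVEC and 15% MSC in ultra-low-attachment U-bottom wells, treated with agents combined with ipatasertib or abemaciclib. Half-log ranges top out near clinical Cmax, or 10 microM when Cmax is unknown.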
# [1] = second compound 0.01 µM, first compound 0.0316 µM
# [2] = second compound 0.01 µM, first compound 0.1 µM
# [3] = second compound 0.01 µM, first compound 0.316 µM
# [4] = second compound 0.01 µM, first compound 1 µM
# [5] = second compound 0.01 µM, first compound 3.16 µM
# [6] = second compound 0.01 µM, first compound 10 µM
# [7] = second compound 0.0316 µM, first compound 0.0316 µM
# [8] = second compound 0.0316 µM, first compound 0.1 µM
# [9] = second compound 0.0316 µM, first compound 0.316 µM
# [10] = second compound 0.0316 µM, first compound 1 µM
# [11] = second compound 0.0316 µM, first compound 3.16 µM
# [12] = second compound 0.0316 µM, first compound 10 µM
# [13] = second compound 0.1 µM, first compound 0.0316 µM
# [14] = second compound 0.1 µM, first compound 0.1 µM
# [15] = second compound 0.1 µM, first compound 0.316 µM
# [16] = second compound 0.1 µM, first compound 1 µM
# [17] = second compound 0.1 µM, first compound 3.16 µM
# [18] = second compound 0.1 µM, first compound 10 µM
# [19] = second compound 0.316 µM, first compound 0.0316 µM
# [20] = second compound 0.316 µM, first compound 0.1 µM
# [21] = second compound 0.316 µM, first compound 0.316 µM
# [22] = second compound 0.316 µM, first compound 1 µM
# [23] = second compound 0.316 µM, first compound 3.16 µM
# [24] = second compound 0.316 µM, first compound 10 µM
# [25] = second compound 1 µM, first compound 0.0316 µM
# [26] = second compound 1 µM, first compound 0.1 µM
# [27] = second compound 1 µM, first compound 0.316 µM
# [28] = second compound 1 µM, first compound 1 µM
# [29] = second compound 1 µM, first compound 3.16 µM
# [30] = second compound 1 µM, first compound 10 µM
# [31] = second compound 0.01 µM, first compound 0.00949 µM
# [32] = second compound 0.01 µM, first compound 0.03 µM
# [33] = second compound 0.01 µM, first compound 0.0949 µM
# [34] = second compound 0.01 µM, first compound 0.3 µM
# [35] = second compound 0.0316 µM, first compound 0.00949 µM
# [36] = second compound 0.0316 µM, first compound 0.03 µM
# [37] = second compound 0.0316 µM, first compound 0.0949 µM
# [38] = second compound 0.0316 µM, first compound 0.3 µM
# [39] = second compound 0.1 µM, first compound 0.00949 µM
# [40] = second compound 0.1 µM, first compound 0.03 µM
# [41] = second compound 0.1 µM, first compound 0.0949 µM
# [42] = second compound 0.1 µM, first compound 0.3 µM
# [43] = second compound 0.316 µM, first compound 0.00949 µM
# [44] = second compound 0.316 µM, first compound 0.03 µM
# [45] = second compound 0.316 µM, first compound 0.0949 µM
# [46] = second compound 0.316 µM, first compound 0.3 µM
# [47] = second compound 1 µM, first compound 0.00949 µM
# [48] = second compound 1 µM, first compound 0.03 µM
# [49] = second compound 1 µM, first compound 0.0949 µM
# [50] = second compound 1 µM, first compound 0.3 µM
# 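Also: spheroids exposed to compounds for seven days before readout.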
# 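For viability, T/C in this document: T/C percent relative to DMSO vehicle wells set as 100% viability.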
smiles,measurement,setting,value
C=CC(=O)N1CCN(c2nc(=O)n(-c3c(C)ccnc3C(C)C)c3nc(-c4c(O)cccc4F)c(F)cc23)C(C)C1 (stereo not given) + CCN1CCN(Cc2ccc(Nc3ncc(F)c(-c4cc(F)c5nc(C)n(C(C)C)c5c4)n3)nc2)CC1,IC50,second compound 0.01 µM,> 10000 nM
same,IC50,second compound 0.0316 µM,> 10000 nM
same,IC50,second compound 0.1 µM,> 10000 nM
same,IC50,second compound 0.316 µM,> 10000 nM
same,IC50,second compound 1 µM,> 10000 nM
same,"viability, T/C",[1],110%
same,"viability, T/C",[2],110%
same,"viability, T/C",[3],107%
same,"viability, T/C",[4],121%
same,"viability, T/C",[5],111%
same,"viability, T/C",[6],79.5%
same,"viability, T/C",[7],95.5%
same,"viability, T/C",[8],92%
same,"viability, T/C",[9],94.2%
same,"viability, T/C",[10],104%
same,"viability, T/C",[11],99.2%
same,"viability, T/C",[12],75.9%
same,"viability, T/C",[13],86.6%
same,"viability, T/C",[14],95.5%
same,"viability, T/C",[15],91.2%
same,"viability, T/C",[16],94.5%
same,"viability, T/C",[17],91.8%
same,"viability, T/C",[18],73%
same,"viability, T/C",[19],88.1%
same,"viability, T/C",[20],85.6%
same,"viability, T/C",[21],82.3%
same,"viability, T/C",[22],97.7%
same,"viability, T/C",[23],95.6%
same,"viability, T/C",[24],79.6%
same,"viability, T/C",[25],89.8%
same,"viability, T/C",[26],82.9%
same,"viability, T/C",[27],46.8%
same,"viability, T/C",[28],96.6%
same,"viability, T/C",[29],95.7%
same,"viability, T/C",[30],73.1%
CC(=O)c1c(C)c2cnc(Nc3ccc(N4CCNCC4)cn3)nc2n(C2CCCC2)c1=O + CCN1CCN(Cc2ccc(Nc3ncc(F)c(-c4cc(F)c5nc(C)n(C(C)C)c5c4)n3)nc2)CC1,IC50,second compound 0.01 µM,> 300 nM
same,IC50,second compound 0.0316 µM,> 300 nM
same,IC50,second compound 0.1 µM,> 300 nM
same,IC50,second compound 0.316 µM,> 300 nM
same,IC50,second compound 1 µM,> 300 nM
same,"viability, T/C","second compound 0.01 µM, first compound 0.000949 µM",106%
same,"viability, T/C","second compound 0.01 µM, first compound 0.003 µM",102%
same,"viability, T/C",[31],92%
same,"viability, T/C",[32],89.5%
same,"viability, T/C",[33],88.7%
same,"viability, T/C",[34],83.9%
same,"viability, T/C","second compound 0.0316 µM, first compound 0.000949 µM",97.9%
same,"viability, T/C","second compound 0.0316 µM, first compound 0.003 µM",85.7%
same,"viability, T/C",[35],84.5%
same,"viability, T/C",[36],97.8%
same,"viability, T/C",[37],83.5%
same,"viability, T/C",[38],76.8%
same,"viability, T/C","second compound 0.1 µM, first compound 0.000949 µM",81.7%
same,"viability, T/C","second compound 0.1 µM, first compound 0.003 µM",77.7%
same,"viability, T/C",[39],71.6%
same,"viability, T/C",[40],81.9%
same,"viability, T/C",[41],92.1%
same,"viability, T/C",[42],70.5%
same,"viability, T/C","second compound 0.316 µM, first compound 0.000949 µM",89.1%
same,"viability, T/C","second compound 0.316 µM, first compound 0.003 µM",86.8%
same,"viability, T/C",[43],88%
same,"viability, T/C",[44],90.9%
same,"viability, T/C",[45],84.7%
same,"viability, T/C",[46],81.4%
same,"viability, T/C","second compound 1 µM, first compound 0.000949 µM",82.3%
same,"viability, T/C","second compound 1 µM, first compound 0.003 µM",77.3%
same,"viability, T/C",[47],54.4%
same,"viability, T/C",[48],83%
same,"viability, T/C",[49],86.4%
same,"viability, T/C",[50],79.7%
CC(C)(C)c1cnc(CSc2cnc(NC(=O)C3CCNCC3)s2)o1 + CCN1CCN(Cc2ccc(Nc3ncc(F)c(-c4cc(F)c5nc(C)n(C(C)C)c5c4)n3)nc2)CC1,IC50,second compound 0.01 µM,77 nM
same,IC50,second compound 0.0316 µM,50.9 nM
same,IC50,second compound 0.1 µM,51.7 nM
same,IC50,second compound 0.316 µM,39.4 nM
same,IC50,second compound 1 µM,31.9 nM
same,"viability, T/C",[31],98.5%
same,"viability, T/C",[32],86%
same,"viability, T/C",[33],43%
same,"viability, T/C",[34],0.52%
same,"viability, T/C","second compound 0.01 µM, first compound 0.949 µM",0.27%
same,"viability, T/C","second compound 0.01 µM, first compound 3 µM",0.36%
same,"viability, T/C",[35],79.2%
same,"viability, T/C",[36],67.3%
same,"viability, T/C",[37],29.3%
same,"viability, T/C",[38],0.36%
same,"viability, T/C","second compound 0.0316 µM, first compound 0.949 µM",0.13%
same,"viability, T/C","second compound 0.0316 µM, first compound 3 µM",0.27%
same,"viability, T/C",[39],74.1%
same,"viability, T/C",[40],71.5%
same,"viability, T/C",[41],25.9%
same,"viability, T/C",[42],0.39%
same,"viability, T/C","second compound 0.1 µM, first compound 0.949 µM",0.19%
same,"viability, T/C","second compound 0.1 µM, first compound 3 µM",0.29%
same,"viability, T/C",[43],76.2%
same,"viability, T/C",[44],62%
same,"viability, T/C",[45],11.2%
same,"viability, T/C",[46],0.34%
same,"viability, T/C","second compound 0.316 µM, first compound 0.949 µM",0.2%
same,"viability, T/C","second compound 0.316 µM, first compound 3 µM",0.3%
same,"viability, T/C",[47],77.1%
same,"viability, T/C",[48],48.5%
same,"viability, T/C",[49],29.2%
same,"viability, T/C",[50],0.4%
same,"viability, T/C","second compound 1 µM, first compound 0.949 µM",0.41%
same,"viability, T/C","second compound 1 µM, first compound 3 µM",0.31%
Cn1nccc1Nc1nccc(-c2ccn(C(CO)c3ccc(Cl)c(F)c3)c(=O)c2)n1 (stereo not given) + CCN1CCN(Cc2ccc(Nc3ncc(F)c(-c4cc(F)c5nc(C)n(C(C)C)c5c4)n3)nc2)CC1,IC50,second compound 0.01 µM,> 10000 nM
same,IC50,second compound 0.0316 µM,6420 nM
same,IC50,second compound 0.1 µM,> 10000 nM
same,IC50,second compound 0.316 µM,7430 nM
same,IC50,second compound 1 µM,> 10000 nM
same,"viability, T/C",[1],90.8%
same,"viability, T/C",[2],77%
same,"viability, T/C",[3],78.3%
same,"viability, T/C",[4],67.7%
same,"viability, T/C",[5],76.7%
same,"viability, T/C",[6],68%
same,"viability, T/C",[7],89.9%
same,"viability, T/C",[8],77.5%
same,"viability, T/C",[9],65%
same,"viability, T/C",[10],63%
same,"viability, T/C",[11],76.6%
same,"viability, T/C",[12],34.8%
same,"viability, T/C",[13],81.9%
same,"viability, T/C",[14],73.4%
same,"viability, T/C",[15],55.9%
same,"viability, T/C",[16],58.9%
same,"viability, T/C",[17],62.3%
same,"viability, T/C",[18],46.6%
same,"viability, T/C",[19],73%
same,"viability, T/C",[20],77.2%
same,"viability, T/C",[21],56.6%
same,"viability, T/C",[22],69.2%
same,"viability, T/C",[23],63.4%
same,"viability, T/C",[24],45.4%
same,"viability, T/C",[25],73.9%
same,"viability, T/C",[26],64.2%
same,"viability, T/C",[27],45.9%
same,"viability, T/C",[28],61.6%
same,"viability, T/C",[29],66.2%
same,"viability, T/C",[30],51%
